Active and inactive are the calls of the source.

The values below come from ChEMBL document CHEMBL1201862, “PubChem BioAssay data set” (2004).

Test [1] deals with T1, RNA-binding protein pos-1 (Caenorhabditis elegans, UniProt G5EF15).
T1 sequence (G5EF15 whole entry): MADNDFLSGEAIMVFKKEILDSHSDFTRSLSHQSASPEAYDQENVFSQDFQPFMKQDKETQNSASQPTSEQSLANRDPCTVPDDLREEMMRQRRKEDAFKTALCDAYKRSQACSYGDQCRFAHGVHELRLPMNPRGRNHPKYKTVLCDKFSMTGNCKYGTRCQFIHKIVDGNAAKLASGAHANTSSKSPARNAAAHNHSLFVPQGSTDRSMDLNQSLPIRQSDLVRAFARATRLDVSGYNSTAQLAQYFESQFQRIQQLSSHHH
Description: disruptors of C. elegans POS-1 RNA interaction – biochemical, fluorescence polarization, dose response (AID 1964).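 Note: purified POS-1 fused to maltose binding protein made in E. coli; potency of compounds blocking POS-1 binding to fluorescent RNA.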

The target of test [2] is T2, Zinc finger protein mex-5 (Caenorhabditis elegans, UniProt Q9XUB2).
T2 sequence (Q9XUB2 whole entry): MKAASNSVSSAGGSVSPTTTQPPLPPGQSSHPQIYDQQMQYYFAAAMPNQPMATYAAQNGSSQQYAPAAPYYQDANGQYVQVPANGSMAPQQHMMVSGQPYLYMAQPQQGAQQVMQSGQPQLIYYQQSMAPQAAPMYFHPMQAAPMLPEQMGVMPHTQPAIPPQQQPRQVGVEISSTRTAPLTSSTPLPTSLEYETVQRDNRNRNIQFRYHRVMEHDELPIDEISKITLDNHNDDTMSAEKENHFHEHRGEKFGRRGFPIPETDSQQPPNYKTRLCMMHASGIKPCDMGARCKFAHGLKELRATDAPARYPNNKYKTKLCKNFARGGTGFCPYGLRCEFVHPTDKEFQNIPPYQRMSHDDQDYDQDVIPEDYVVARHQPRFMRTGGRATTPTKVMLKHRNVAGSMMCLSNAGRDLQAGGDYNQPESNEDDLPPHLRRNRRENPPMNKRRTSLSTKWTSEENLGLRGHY
Description: potency of MEX-5 RNA-binding blockers – biochemical, C. elegans, fluorescence polarization, dose response (AID 1960). In general terms: Fluorescence polarisation rises when a labelled molecule tumbles more slowly, as on binding a larger partner.

Test [3] addresses Induced myeloid leukemia cell differentiation protein Mcl-1 (Homo sapiens, UniProt Q07820). Description: blockers of MCL1 binding to BIM peptide – biochemical, fluorescence polarization, BIM-BH3 peptide, 1536-well, dose response (AID 2217).
In another test the target is Bcl-2-like protein 1 (Homo sapiens, UniProt Q07817). The experiment in a line: blockers of BCLXL peptide binding – biochemical, fluorescence polarization, 1536-well, selectivity assay for MCL1 inhibitor project, dose response (AID 2218).
A further test has as its system HeLa. The experiment in a line: viability loss in HeLa cells – cell-based, 24 h, cherry-picked samples, cytotoxicity control, dose response (AID 504726).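 Note: potency for cytotoxicity as loss of luminescence signal.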 Format: functional. To be noted: Homo sapiens.
In another test the target is ORF 73 (Human herpesvirus 8, UniProt O40947). The experiment in a line: KSHV LANA DNA-binding disruption – biochemical, fluorescence polarization, cherry-picked samples, dose response (AID 504725).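 Note: fluorescence polarization of a labeled DNA duplex reporting LANA DNA binding; potency is for inhibitors that block LANA binding to the DNA.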 Set-up: species or system Human gammaherpesvirus 8.
The target of test [4] is Beta-adrenergic receptor kinase 1 (Homo sapiens, UniProt P25098). The experiment in a line: aptamer displacement from bead-bound GRK2 – biochemical, cherry pick 1, bead flow cytometry, dose response (AID 504500). Background: Flow cytometry measures light scatter and fluorescence of single cells or particles in a stream.
The target in test [5] is DNA (cytosine-5)-methyltransferase 1 (Homo sapiens, UniProt P26358). The experiment in a line: inhibition of DNA methylation by DNMT1 – biochemical, fluorescent molecular beacon, confirmation (AID 602386). The format is functional.
Test [6] has as its target T3, Small ubiquitin-related modifier 1 (Homo sapiens, UniProt P63165). The experiment in a line: SUMO1 protein interaction blockers, potency – biochemical, fluorescence polarization, uHTS hits, dose response (AID 624382). The format is functional. The note with it: read-out: IC50_Mean.
Test [7] addresses T3, Small ubiquitin-related modifier 1. The experiment in a line: SUMO1 protein-protein binding blockers, potency – biochemical, FRET, dose response (AID 624383). The note with it: read-out: IC50_Mean. Format: functional.
The nature of test [8]: luciferase reporter signal suppression in cells – H4 neuroglioma cells, luminescence, dose response (AID 1990). Format: functional, cell-based.
A short description of test [9]: Luminescence Cell-Based Dose Response HTS to Identify Inhibitors of 5'UTR Stem-Loop Driven Prion Protein mRNA Translation in H4 Neuroglioblastoma Cells. [Related pubchem assays: 1827 (Project Summary), 1813 (Primary HTS)]. The format is functional.
The nature of test [10]: alpha-synuclein stem-loop luciferase translation blockers – H4 neuroglioma cells, luminescence, confirmation (AID 1988). The format is functional, cell-based.
The target of test [11] is T4, Heat shock factor protein 1 (Mus musculus, UniProt P38532).
T4 sequence (P38532 whole entry): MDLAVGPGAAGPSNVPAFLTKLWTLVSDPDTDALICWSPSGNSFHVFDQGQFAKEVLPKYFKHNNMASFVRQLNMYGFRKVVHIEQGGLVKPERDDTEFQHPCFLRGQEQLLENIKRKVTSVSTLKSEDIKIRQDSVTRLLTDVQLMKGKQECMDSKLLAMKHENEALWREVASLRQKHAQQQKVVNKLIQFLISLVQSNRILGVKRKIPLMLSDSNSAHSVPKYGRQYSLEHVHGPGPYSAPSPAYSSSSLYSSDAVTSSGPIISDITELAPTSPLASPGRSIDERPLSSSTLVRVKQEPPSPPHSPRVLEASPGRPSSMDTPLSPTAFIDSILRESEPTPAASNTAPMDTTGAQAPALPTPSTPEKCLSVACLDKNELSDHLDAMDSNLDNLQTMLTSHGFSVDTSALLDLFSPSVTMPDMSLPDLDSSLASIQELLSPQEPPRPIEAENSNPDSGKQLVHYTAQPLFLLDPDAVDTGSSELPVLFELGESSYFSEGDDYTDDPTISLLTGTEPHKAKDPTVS
Description: enhancement of HSF1-driven luciferase signal – cell-based, NIH3T3, luminescence, dose retest, confirmation (AID 435004).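 Note: stress induced by proteasome inhibitor MG132 added 30 min after compound; luciferase reporter driven by HSF1 response element in NIH3T3 cells; actives raise luminescence as potentiators of the MG132 stress response.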 The format is functional.

For test [12], the target named is T5, Microphthalmia-associated transcription factor (Homo sapiens, UniProt O75030).
T5 sequence (O75030 whole entry): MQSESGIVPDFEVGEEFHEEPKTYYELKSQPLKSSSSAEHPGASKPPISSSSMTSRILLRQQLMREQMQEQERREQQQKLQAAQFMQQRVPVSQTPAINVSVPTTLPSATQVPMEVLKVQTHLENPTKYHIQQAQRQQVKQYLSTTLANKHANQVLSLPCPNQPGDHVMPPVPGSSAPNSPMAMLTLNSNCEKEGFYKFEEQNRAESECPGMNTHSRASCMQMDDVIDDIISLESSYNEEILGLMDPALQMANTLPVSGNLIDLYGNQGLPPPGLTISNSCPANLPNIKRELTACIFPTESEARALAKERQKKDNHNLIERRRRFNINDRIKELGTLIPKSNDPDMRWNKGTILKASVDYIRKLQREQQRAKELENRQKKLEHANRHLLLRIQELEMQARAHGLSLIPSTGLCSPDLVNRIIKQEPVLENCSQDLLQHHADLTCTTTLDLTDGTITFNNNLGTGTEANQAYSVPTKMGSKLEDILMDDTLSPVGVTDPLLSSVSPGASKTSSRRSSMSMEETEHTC
Description: reducers of TRPM1 reporter luminescence, concentration series – cell-based, SK-MEL-5, cherry-picked, set 3, MITF inhibitor project, dose response (AID 493073).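 Note: SK-MEL-5 melanoma cells with luciferase driven by the MITF target TRPM1 promoter.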 The format is functional.

Test [13] concerns HEK293. The experiment in a line: HEK293T cell viability loss, resazurin readout – resazurin fluorescence, cytotoxicity control for NF-kB activator project, SAR follow-up (AID 493251). Format: functional, cell-based. The note with it: Homo sapiens. In general terms: Resazurin is reduced to fluorescent resorufin, in cell work by metabolically active cells.
In another test the test system is Jurkat. Description: SAR Analysis of small molecule inhibitors of T-cell specific antigen receptor-induced NF-kB activation in a Jurkat cell line using a luminescence assay - Set 2. [Related pubchem assays (depositor defined):AID435003, AID435012, AID465]. To be noted: Homo sapiens. Format: functional, cell-based.
Test [14] deals with HEK293. The experiment in a line: SAR Analysis of small molecule inhibitors of T-cell specific antigen receptor-induced NF-kB activation in a HEK-293T cell line using a luminescence assay - Set 2. [Related pubchem assays (depositor defined):AID435003, AID435012, AID489026]. The format is functional, cell-based. The note with it: Homo sapiens.
Test [15] has as its target T6, Beta-2 adrenergic receptor (Homo sapiens, UniProt P07550). Description: Dose response for HTS for Beta-2AR agonists via FAP method from Powderset1. The format is functional.
Test [16] deals with T6, Beta-2 adrenergic receptor. Description: ADRB2 activation measured by internalization – cell-based, FAP fluorogen, flow cytometry, cherry pick 1, dose response (AID 588763). The format is functional.
Test [17] in a line: reduction of Shn3 3'UTR-driven luciferase in osteoblasts – cell-based, Clone20 osteoblasts, firefly luciferase, cherry-picked, dose response (AID 624132).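 Note: firefly luciferase luminescence from reporter carrying the Shn3 3'UTR in osteoblasts.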 The format is functional.
A short description of test [18]: loss of viability in HepG2 cells – cell-based, CellTiter-Glo, cherry-picked, cytotoxicity control for Shn3 inhibitor project, dose response (AID 624134). The format is functional.
Test [19] is described as follows: non-specific 3'UTR reporter inhibition in Clone20-Shn3RL – cell-based, Renilla luciferase, cherry-picked, counter-screen for Shn3 inhibitor project, dose response (AID 624133). Format: functional.

T3 sequence (P63165 whole entry): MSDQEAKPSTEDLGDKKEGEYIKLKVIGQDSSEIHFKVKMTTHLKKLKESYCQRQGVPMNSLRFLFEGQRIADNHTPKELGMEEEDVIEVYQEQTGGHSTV
T6 sequence (P07550 whole entry): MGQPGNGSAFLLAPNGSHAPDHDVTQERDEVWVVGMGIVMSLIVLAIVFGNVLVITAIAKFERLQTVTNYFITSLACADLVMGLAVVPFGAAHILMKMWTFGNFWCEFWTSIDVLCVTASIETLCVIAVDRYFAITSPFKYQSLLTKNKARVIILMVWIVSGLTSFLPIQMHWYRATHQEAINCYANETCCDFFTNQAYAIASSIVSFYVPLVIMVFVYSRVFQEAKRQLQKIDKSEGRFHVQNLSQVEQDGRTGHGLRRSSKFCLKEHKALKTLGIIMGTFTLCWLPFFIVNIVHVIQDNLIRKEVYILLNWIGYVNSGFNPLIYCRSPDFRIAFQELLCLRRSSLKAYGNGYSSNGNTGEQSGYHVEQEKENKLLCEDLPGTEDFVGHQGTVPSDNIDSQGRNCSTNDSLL
Chain of Induced myeloid leukemia cell differentiation protein Mcl-1 (Q07820 whole entry): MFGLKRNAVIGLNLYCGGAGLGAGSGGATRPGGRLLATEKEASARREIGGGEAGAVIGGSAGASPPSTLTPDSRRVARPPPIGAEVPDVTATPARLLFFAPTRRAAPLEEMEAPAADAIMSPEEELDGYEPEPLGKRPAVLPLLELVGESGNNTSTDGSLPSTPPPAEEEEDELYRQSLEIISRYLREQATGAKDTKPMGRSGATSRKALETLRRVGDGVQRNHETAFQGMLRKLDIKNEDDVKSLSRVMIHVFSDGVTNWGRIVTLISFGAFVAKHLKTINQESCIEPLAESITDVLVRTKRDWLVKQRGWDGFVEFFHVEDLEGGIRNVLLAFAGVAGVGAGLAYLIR
Chain of DNA (cytosine-5)-methyltransferase 1 (P26358 whole entry): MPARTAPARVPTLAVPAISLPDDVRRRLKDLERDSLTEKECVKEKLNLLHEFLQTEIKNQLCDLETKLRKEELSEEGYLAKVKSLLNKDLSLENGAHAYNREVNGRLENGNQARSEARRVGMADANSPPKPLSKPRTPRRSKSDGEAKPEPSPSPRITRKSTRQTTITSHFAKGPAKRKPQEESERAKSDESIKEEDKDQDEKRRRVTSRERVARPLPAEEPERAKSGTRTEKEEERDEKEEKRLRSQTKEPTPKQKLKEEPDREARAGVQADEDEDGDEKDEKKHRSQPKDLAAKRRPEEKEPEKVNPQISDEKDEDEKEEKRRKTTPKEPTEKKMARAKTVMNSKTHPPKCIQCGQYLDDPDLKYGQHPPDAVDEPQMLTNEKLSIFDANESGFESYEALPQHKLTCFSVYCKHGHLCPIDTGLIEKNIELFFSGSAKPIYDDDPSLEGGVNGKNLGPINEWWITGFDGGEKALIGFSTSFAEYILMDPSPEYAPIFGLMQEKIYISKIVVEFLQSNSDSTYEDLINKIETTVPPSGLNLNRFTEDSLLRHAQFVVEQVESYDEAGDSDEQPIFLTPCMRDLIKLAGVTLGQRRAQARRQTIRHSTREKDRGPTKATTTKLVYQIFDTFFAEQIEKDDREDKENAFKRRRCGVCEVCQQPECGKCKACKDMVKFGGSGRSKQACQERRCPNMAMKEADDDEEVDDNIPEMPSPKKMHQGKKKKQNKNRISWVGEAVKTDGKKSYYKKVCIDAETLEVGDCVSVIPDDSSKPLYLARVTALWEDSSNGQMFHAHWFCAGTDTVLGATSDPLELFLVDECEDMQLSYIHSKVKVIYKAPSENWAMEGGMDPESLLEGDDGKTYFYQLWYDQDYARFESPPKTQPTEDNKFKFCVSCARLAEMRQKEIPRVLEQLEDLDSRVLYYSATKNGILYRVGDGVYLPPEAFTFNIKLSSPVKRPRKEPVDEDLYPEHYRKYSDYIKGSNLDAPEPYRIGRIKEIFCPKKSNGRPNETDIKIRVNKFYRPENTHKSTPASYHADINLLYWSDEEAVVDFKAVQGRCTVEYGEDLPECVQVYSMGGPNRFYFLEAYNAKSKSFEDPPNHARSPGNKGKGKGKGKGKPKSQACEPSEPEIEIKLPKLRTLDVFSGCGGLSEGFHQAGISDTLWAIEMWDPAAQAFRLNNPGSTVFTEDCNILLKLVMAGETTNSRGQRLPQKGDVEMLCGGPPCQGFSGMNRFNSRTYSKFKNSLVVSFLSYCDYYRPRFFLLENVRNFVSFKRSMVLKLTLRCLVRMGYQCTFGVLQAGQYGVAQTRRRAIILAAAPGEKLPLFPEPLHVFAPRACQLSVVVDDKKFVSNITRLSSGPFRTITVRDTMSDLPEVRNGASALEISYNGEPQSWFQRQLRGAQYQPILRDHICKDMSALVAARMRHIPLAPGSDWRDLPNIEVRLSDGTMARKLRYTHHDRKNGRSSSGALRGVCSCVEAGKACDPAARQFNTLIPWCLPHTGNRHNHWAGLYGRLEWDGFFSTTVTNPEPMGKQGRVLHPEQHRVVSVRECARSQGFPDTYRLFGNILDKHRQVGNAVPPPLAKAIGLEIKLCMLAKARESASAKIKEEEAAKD
Chain of ORF 73 (O40947 whole entry): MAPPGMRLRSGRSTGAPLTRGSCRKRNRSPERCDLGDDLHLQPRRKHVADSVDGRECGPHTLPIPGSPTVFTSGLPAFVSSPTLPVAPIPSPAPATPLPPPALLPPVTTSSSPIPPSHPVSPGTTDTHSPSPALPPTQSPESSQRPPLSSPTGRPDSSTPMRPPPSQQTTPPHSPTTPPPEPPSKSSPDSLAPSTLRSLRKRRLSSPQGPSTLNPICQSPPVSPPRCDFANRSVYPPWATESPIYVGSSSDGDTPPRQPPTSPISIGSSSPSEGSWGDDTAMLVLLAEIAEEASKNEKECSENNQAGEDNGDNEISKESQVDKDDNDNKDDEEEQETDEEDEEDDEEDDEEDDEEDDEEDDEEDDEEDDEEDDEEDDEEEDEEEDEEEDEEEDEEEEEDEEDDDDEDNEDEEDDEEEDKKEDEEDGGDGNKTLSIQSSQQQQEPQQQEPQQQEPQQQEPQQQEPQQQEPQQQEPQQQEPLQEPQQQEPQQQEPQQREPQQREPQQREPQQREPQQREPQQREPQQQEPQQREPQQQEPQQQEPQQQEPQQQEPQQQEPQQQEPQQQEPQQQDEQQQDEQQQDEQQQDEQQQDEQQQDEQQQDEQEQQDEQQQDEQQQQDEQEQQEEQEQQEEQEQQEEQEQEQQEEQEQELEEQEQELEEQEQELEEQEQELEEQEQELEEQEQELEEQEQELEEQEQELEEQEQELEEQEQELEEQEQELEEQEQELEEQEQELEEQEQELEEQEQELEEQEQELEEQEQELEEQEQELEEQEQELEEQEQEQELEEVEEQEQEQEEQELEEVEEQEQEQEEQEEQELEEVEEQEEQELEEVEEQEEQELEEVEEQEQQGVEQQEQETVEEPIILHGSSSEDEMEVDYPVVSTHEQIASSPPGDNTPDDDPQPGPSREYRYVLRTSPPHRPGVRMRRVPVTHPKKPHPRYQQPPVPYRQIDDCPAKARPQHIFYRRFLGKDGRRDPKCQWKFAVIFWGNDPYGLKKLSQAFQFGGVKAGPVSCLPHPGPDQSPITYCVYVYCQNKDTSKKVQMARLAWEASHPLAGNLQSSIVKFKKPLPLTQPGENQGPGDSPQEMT
Chain of Bcl-2-like protein 1 (Q07817 whole entry): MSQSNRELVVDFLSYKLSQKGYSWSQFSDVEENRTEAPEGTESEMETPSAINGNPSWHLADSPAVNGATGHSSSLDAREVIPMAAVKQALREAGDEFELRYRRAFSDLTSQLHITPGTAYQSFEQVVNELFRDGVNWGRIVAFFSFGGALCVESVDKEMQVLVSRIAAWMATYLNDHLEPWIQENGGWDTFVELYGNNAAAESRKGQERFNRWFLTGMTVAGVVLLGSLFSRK
Chain of Beta-adrenergic receptor kinase 1 (P25098 whole entry): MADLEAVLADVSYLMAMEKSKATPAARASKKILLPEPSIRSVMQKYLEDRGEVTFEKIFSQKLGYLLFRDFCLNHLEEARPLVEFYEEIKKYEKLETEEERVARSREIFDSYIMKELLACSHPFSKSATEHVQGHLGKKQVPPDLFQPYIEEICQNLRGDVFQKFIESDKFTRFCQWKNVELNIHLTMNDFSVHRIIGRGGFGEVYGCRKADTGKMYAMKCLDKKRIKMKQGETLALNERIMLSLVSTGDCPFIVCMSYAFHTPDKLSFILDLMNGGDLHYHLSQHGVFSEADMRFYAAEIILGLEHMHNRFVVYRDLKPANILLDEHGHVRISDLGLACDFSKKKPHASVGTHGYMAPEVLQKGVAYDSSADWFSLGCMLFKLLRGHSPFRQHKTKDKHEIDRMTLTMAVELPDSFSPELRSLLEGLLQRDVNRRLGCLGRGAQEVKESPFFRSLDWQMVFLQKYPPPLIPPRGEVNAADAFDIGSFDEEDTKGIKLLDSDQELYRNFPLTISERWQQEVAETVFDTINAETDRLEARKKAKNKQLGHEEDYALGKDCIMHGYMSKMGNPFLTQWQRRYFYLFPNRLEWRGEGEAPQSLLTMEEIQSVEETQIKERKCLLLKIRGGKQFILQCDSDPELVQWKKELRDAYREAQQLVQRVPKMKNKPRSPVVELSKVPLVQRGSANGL

As for `O=C(O)c1ccc(-n2cccc2/C=C2/SC(=O)N(CC(=O)N3CCCC3)C2=O)cc1`, the EC50 in [1] was 89 µM (active); in [2] it was 78.2 µM (active); in test [4], 33 µM (inactive). Also, the IC50 in test [3] is 15.9 µM (not active); at Bcl-2-like protein 1, 104 µM (not active); in test [5], 3.5 µM (active); in [6], > 66.6 µM (inactive); in test [7], 6.13 µM (active). Moreover, the AC50 is 44.7 µM (active) in the test with HeLa and 30.3 µM (active) on ORF 73.

As for `O=C(Nc1ccc(-c2nc3ncccc3o2)cc1)c1ccc([N+](=O)[O-])o1`, the EC50 in [8] was > 120 µM (not active); in [9], > 120 µM (not active); in test [10], > 60 µM (not active); in [11], 7.12 µM (active); in test [15] it was 0.152 µM (active); in [16] it was 0.636 µM (active). In addition, the AC50 in [12] is 3.63 µM (active); in test [17], 1.34 µM (active); in test [18], 22.6 µM (active); in test [19], 11 µM (active). The IC50 in the test on HEK293 [13] was > 80 µM (inactive); in the test on Jurkat, > 79 µM (inactive); in the test with HEK293 [14], > 80 µM (inactive).

As a reminder, the EC50 is the concentration needed to bring the measured effect to its halfway point. Broadly, the AC50 is the midpoint of the concentration-response curve, whichever way the signal moves.
